Laboratory results: US11304944B2, “MetAP2 inhibitors and methods of treating obesity” (SynDevRx, Inc., priority 2013, dated 2022)
Values joined by “and” are separate entries in the source; they are usually repeats but may differ in a detail not shown here. Equal values may be shown once. Read-outs that look alike come from different tables or passages of the source.

What was measured:
DIO C57Bl6 mice = settings: for Epid. Fat / Fat % BW / Ing. Fat / Liver / RP Fat / Total Fat / avg B.W.: day 32; for Blood glucose: day 32, fasted three hours; for weekly food consumption, % of vehicle: day 9-29; for Weight Change from day 1: Day 32; for Average BW: IP-GTT day 24; for Blood Glucose 120 / Blood Glucose 15 min / Blood Glucose 30 min / Blood Glucose 60 min / Blood Glucose 90 min / Blood Glucose Fasting: IP-GTT day 24, ± SEM; for CHOLESTEROL / HDL CHOLESTEROL / HDL/LDL ratio / LDL / TRIGLYCERIDE: blood day 32, ± SEM
Experimental: C57Bl6 male mice (N=6) fifteen weeks old with an average of weight of 42 g were ad libitum fed TD.06414 a high fat diet composed of 60% Kcal from fat (Harlan diet). […] Animals were weighed every other day. Food consumption was measured weekly. […] Each animal was weighed and a baseline fasted glucose measurement collected. Each animal was given a 1 gram per kilogram dose of dextrose as a 25% solution by intraperitoneal injection.

Sprague Dawley male rats = assay: Tolerability of high IV doses on q7d schedule in Sprague Dawley rats; assay type: in vivo; settings: 100 mg/kg or 200 mg/kg IV on days 1, 8, 15, 22 and 29
Experimental: Sprague Dawley male rats (N=3) nine to ten weeks old with an average weight of 300 g were ad libitum fed standard rodent diet (PharmaServ lab diet 5001). […] The rats were weighed periodically and bled on day 10, day 17, day 24. For in-life blood collections, the rats were anesthetized with an inhalation mixture of 4% Isoflurane and 1.5% oxygen, then blood was collected via retro-orbital plexus puncture at a volume of at least 1 mL. […] Within the limits of comparison to normal ranges and pre-dose data, clinical findings for albumin, albumin/globulin ratio, alkaline, phosphatase, ALT (SGPT), AST (SGOT), bicarbonate, direct bilirubin, indirect bilirubin, total bilirubin, BUN, BUN/creatinine ratio, calcium, chloride, cholesterol, CK, creatinine, globulin, glucose, phosphorus, potassium, sodium, sodium/potassium ratio, total protein were unremarkable.

poly[HPMA-co-MA-GFLG-N-(trans-4-aminocyclohexyl)carbamoylfumagillol] [Compound 16]
Epid. Fat (DIO C57Bl6 mice; 0.6 mg/kg q4d sc): 2.24 g
Fat % BW (DIO C57Bl6 mice; 0.6 mg/kg q4d sc): 13.9%
Ing. Fat (DIO C57Bl6 mice; 0.6 mg/kg q4d sc): 2.51 g
Liver (DIO C57Bl6 mice; 0.6 mg/kg q4d sc): 1.75 g
RP Fat (DIO C57Bl6 mice; 0.6 mg/kg q4d sc): 1.26 g
Total Fat (DIO C57Bl6 mice; 0.6 mg/kg q4d sc): 6.01 g
avg B.W. (DIO C57Bl6 mice; 0.6 mg/kg q4d sc): 43.32 g
Blood glucose (DIO C57Bl6 mice; 0.6 mg/kg q4d sc): 265 mg/dL
weekly food consumption, % of vehicle (DIO C57Bl6 mice; 2 mg/kg q4d): 90%
Weekly food consumption Day 1-8 (DIO C57Bl6 mice; 2 mg/kg q4d sc): 14.3 g
Weekly food consumption Day 9-15 (DIO C57Bl6 mice; 2 mg/kg q4d sc): 22.2 g
Weekly food consumption Day 15-22 (DIO C57Bl6 mice; 2 mg/kg q4d sc): 19.9 g
Weekly food consumption Day 22-29 (DIO C57Bl6 mice; 2 mg/kg q4d sc): 18.5 g
Group BW ± SEM, Day 32 (DIO C57Bl6 mice; 2.0 mg/kg q4d sc): 38.8 ± 0.70 g
Weight Change from day 1 (DIO C57Bl6 mice; 2.0 mg/kg q4d sc): −7.4%
Average BW (DIO C57Bl6 mice; 2.0 mg/kg q4d sc): 36.8 g
Blood Glucose 120 (DIO C57Bl6 mice; 2.0 mg/kg q4d sc): 166 ± 6.4 mg/dL
Blood Glucose 15 min (DIO C57Bl6 mice; 2.0 mg/kg q4d sc): 388 ± 20.7 mg/dL
Blood Glucose 30 min (DIO C57Bl6 mice; 2.0 mg/kg q4d sc): 361 ± 24.3 mg/dL
Blood Glucose 60 min (DIO C57Bl6 mice; 2.0 mg/kg q4d sc): 327 ± 26.7 mg/dL
Blood Glucose 90 min (DIO C57Bl6 mice; 2.0 mg/kg q4d sc): 244 ± 24.0 mg/dL
Blood Glucose Fasting (DIO C57Bl6 mice; 2.0 mg/kg q4d sc): 198 ± 11.6 mg/dL
CHOLESTEROL (DIO C57Bl6 mice; 2 mg/kg q4d sc): 149 ± 4.7 mg/dL
HDL CHOLESTEROL (DIO C57Bl6 mice; 2 mg/kg q4d sc): 92 ± 2.6 mg/dL
HDL/LDL ratio (DIO C57Bl6 mice; 2 mg/kg q4d sc): 9.0 ± 0.4
LDL (DIO C57Bl6 mice; 2 mg/kg q4d sc): 10 ± 0.5 mg/dL
TRIGLYCERIDE (DIO C57Bl6 mice; 2 mg/kg q4d sc): 95 ± 8.7 mg/dL
Epid. Fat (DIO C57Bl6 mice; 2.0 mg/kg q4d sc): 1.72 g
Fat % BW (DIO C57Bl6 mice; 2.0 mg/kg q4d sc): 11% and 11.4%
Ing. Fat (DIO C57Bl6 mice; 2.0 mg/kg q4d sc): 1.81 g
Liver (DIO C57Bl6 mice; 2.0 mg/kg q4d sc): 1.44 g
RP Fat (DIO C57Bl6 mice; 2.0 mg/kg q4d sc): 0.89 g
Total Fat (DIO C57Bl6 mice; 2.0 mg/kg q4d sc): 4.42 g
avg B.W. (DIO C57Bl6 mice; 2.0 mg/kg q4d sc): 38.82 g
Blood glucose (DIO C57Bl6 mice; 2.0 mg/kg q4d sc): 259 mg/dL
weekly food consumption, % of vehicle (DIO C57Bl6 mice; 6 mg/kg q4d): 75%
Weekly food consumption Day 1-8 (DIO C57Bl6 mice; 6 mg/kg q4d sc): 9.0 g
Weekly food consumption Day 9-15 (DIO C57Bl6 mice; 6 mg/kg q4d sc): 17.5 g
Weekly food consumption Day 15-22 (DIO C57Bl6 mice; 6 mg/kg q4d sc): 17.8 g
Weekly food consumption Day 22-29 (DIO C57Bl6 mice; 6 mg/kg q4d sc): 16.1 g
Group BW ± SEM, Day 32 (DIO C57Bl6 mice; 6.0 mg/kg q4d sc): 33.6 ± 0.72 g
Weight Change from day 1 (DIO C57Bl6 mice; 6.0 mg/kg q4d sc): −20.0%
Average BW (DIO C57Bl6 mice; 6.0 mg/kg q4d sc): 33.0 g
Blood Glucose 120 (DIO C57Bl6 mice; 6.0 mg/kg q4d sc): 177 ± 9.3 mg/dL
Blood Glucose 15 min (DIO C57Bl6 mice; 6.0 mg/kg q4d sc): 473 ± 39.1 mg/dL
Blood Glucose 30 min (DIO C57Bl6 mice; 6.0 mg/kg q4d sc): 355 ± 23.8 mg/dL
Blood Glucose 60 min (DIO C57Bl6 mice; 6.0 mg/kg q4d sc): 324 ± 19.1 mg/dL
Blood Glucose 90 min (DIO C57Bl6 mice; 6.0 mg/kg q4d sc): 240 ± 6.7 mg/dL
Blood Glucose Fasting (DIO C57Bl6 mice; 6.0 mg/kg q4d sc): 185 ± 6.5 mg/dL
CHOLESTEROL (DIO C57Bl6 mice; 6 mg/kg q4d sc): 109 ± 2.6 mg/dL
HDL CHOLESTEROL (DIO C57Bl6 mice; 6 mg/kg q4d sc): 72 ± 1.3 mg/dL
HDL/LDL ratio (DIO C57Bl6 mice; 6 mg/kg q4d sc): 9.0 ± 0.5
LDL (DIO C57Bl6 mice; 6 mg/kg q4d sc): 8 ± 0.5 mg/dL
TRIGLYCERIDE (DIO C57Bl6 mice; 6 mg/kg q4d sc): 81 ± 13.6 mg/dL
Epid. Fat (DIO C57Bl6 mice; 6.0 mg/kg q4d sc): 1.11 g
Fat % BW (DIO C57Bl6 mice; 6.0 mg/kg q4d sc): 10% and 9.7%
Ing. Fat (DIO C57Bl6 mice; 6.0 mg/kg q4d sc): 1.54 g
Liver (DIO C57Bl6 mice; 6.0 mg/kg q4d sc): 1.30 g
RP Fat (DIO C57Bl6 mice; 6.0 mg/kg q4d sc): 0.60 g
Total Fat (DIO C57Bl6 mice; 6.0 mg/kg q4d sc): 3.25 g
avg B.W. (DIO C57Bl6 mice; 6.0 mg/kg q4d sc): 33.60 g
Blood glucose (DIO C57Bl6 mice; 6.0 mg/kg q4d sc): 227 mg/dL
evidence of neurotoxicity (ataxis, disorientation, tremor or convulsion) (Sprague Dawley male rats): did not exhibit any evidence of neurotoxicity
